US5932217A, “Peptides which inhibit adhesion between leukocytes and endothelial cells” (priority 1994, dated 1999)

Test system: rats inoculated intracisternally with Haemophilus influenzae type b lipooligosaccharide
Test: Rat meningitis model (H. influenzae LOS)
Assay type: in vivo
Settings: for Leukocytosis: Experiment #3, 600 nmol i.v., CSF 4 hours after LOS
Experimental: The experiments were performed according to established protocols (Wispelway et al., 1988, J. Clin. Invest., 82: 1339-1346). Purified Haemophilus influenzae type b strain DL42 lipooligosaccharide (LOS) was prepared for inoculation by sonication for 30 minutes, dilution to the desired concentration (20 ng/50 μl) in normal saline or PBS, and sonication for an additional 15 to 30 minutes just prior to use.
Briefly, anesthetized female Wistar rats were placed under a micromanipulator and inoculated intracisternally with a 25 gauge needle. After removal of 50 μl of CSF (without visible blood contamination), rats were inoculated intracisternally with 50 μl (20 ng) of LOS using a 1 ml syringe with a 25 gauge needle. Ten to fifteen minutes after inoculation with LOS, the rats were treated by intravenous administration of the test substance: a solution of an FHA peptide in PBS, a solution of a control peptide in PBS, or an equal volume of PBS alone.
Three hours after LOS inoculation, 5 μCi of ^125 I-radiolabelled albumin in 50 μl normal saline was administered intravenously. One hour later, CSF was collected via intracisternal puncture and blood samples were collected via intracardiac puncture. CSF leukocytosis was determined by manually counting white blood cells using a hemacytometer, and blood-brain barrier permeability was determined as the percent of radioactivity in whole blood that was present in the CSF. Blood samples were obtained immediately prior to inoculation, immediately prior to treatment, and at 4 hours post-inoculation for determination of peripheral white blood cell concentrations.

Q: What does the source list for Ac-ETKEVDG-NH2 [Acetyl/Amide-FHA II]?
A: BBB permeability (Experiment #3, 600 nmol): 6.00 ± 5.14%; Leukocytosis: approximately 10,000 cells/ml; Leukocytosis (listed as ac/am FHA II): 10,500 ± 8523 cells/ml; neutropenia (peripheral white blood cells): No neutropenia was observed; Inhibition of blood-brain barrier permeability (rat, in vivo): not observed
